Among the data in patent US8344010B2, “Fused imidazole derivatives as TRPV3 antagonist” (Glenmark Pharmaceuticals S.A., priority 2008, dated 2013) are inhibition and IC50 values, retold here.

pIC50: −log10 of the molar value. Where only a bound is given, the exact number is not on record here.

The test addresses T1, Human TRPV3 (Homo sapiens, UniProt Q8NET8).
T1 construct: expressed in transfected cells; host or cells: CHO cells (selected with G-418)
T1 sequence (Q8NET8 1-790): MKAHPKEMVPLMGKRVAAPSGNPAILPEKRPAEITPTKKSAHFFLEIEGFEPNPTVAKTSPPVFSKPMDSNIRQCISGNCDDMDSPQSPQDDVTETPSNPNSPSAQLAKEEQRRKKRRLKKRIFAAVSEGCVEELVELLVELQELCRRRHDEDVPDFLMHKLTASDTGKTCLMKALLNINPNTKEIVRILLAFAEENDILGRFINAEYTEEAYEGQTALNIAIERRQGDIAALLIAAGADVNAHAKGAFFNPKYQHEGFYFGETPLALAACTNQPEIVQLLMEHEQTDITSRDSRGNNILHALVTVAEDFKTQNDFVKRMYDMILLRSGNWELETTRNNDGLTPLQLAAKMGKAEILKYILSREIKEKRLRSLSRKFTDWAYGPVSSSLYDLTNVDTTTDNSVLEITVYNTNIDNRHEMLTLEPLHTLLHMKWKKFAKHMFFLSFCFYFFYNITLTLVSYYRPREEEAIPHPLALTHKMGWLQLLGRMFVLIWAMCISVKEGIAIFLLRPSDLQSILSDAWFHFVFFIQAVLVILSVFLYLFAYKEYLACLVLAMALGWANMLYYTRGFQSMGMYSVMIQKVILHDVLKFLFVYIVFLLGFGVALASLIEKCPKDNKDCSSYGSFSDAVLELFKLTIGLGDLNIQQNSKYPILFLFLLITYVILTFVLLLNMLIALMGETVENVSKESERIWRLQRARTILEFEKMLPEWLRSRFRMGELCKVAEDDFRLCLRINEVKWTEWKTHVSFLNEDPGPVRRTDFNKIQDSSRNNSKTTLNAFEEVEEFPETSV
As to the kind of experiment: 45Calcium uptake assay: inhibition of 2-APB induced cellular uptake of radioactive calcium. Format: cell-based. To be noted: human TRPV3 expressing CHO cells, 2-APB 500 μM; for inhibition at 1 µM: 1 μM test compound, read-out: Percentage Inhibition (1 μM); for inhibition at 10 µM: 10 μM test compound, read-out: Percentage Inhibition (10 μM); for pIC50: class symbol. The text has this:
The illustrative examples of the present invention are screened for TRPV3 activity according to a modified procedure described in Tóth, A., Kedei, N., Wang, Y. and Blumberg, P. M. Life Sciences (2003), 73, 487-498. The screening of the compounds can be carried out by other methods and procedures known to a person skilled in the art. Such screening methods may be found in (a) Hu, H.-Z. et al. J. Biol. Chem. (2004), 279, 35741-35747; (b) Smith, G. D. et al. Nature (2002), 418, 186-190; (c) Peier, A. M. et al. Science (2002), 296, 2046-2049.
Screening for TRPV3 antagonist using the ^45Calcium uptake assay The inhibition of TRPV3 receptor activation was followed as inhibition of 2-aminoethoxydiphenylborate (2-APB) induced cellular uptake of radioactive calcium. Test compounds were dissolved in dimethyl sulfoxide (DMSO) to prepare 20 mM stock solution and then diluted using plain medium with DMEM/F-12 containing 1.8 mM CaCl2 to get desired concentration. Final concentration of DMSO in the reaction was 0.5% (v/v). Human TRPV3 expressing CHO cells were grown in DMEM/F-12 medium with 10% FBS, 1% penicillin-streptomycin solution, 400 μg/ml of G-418. Cells were seeded 24 h prior to the assay in 96 well plates so as to get ˜50,000 cells per well on the day of experiment. Cells were treated with test compounds for 10 minutes followed by addition of 2-APB at a final concentration of 500 μM and 5 μCi/ml^45Ca^+2 for 4 minutes. Cells were washed and lysed using buffer containing 1% Triton X-100, 0.1% deoxycholate and 0.1% SDS. Radioactivity in the lysate was measured in Packardt Top count after addition of liquid scintillant. Concentration response curves were plotted as a % of maximal response obtained in the absence of test antagonist. IC50 value was calculated from concentration response curve by nonlinear regression analysis using GraphPad PRISM software.
Percentage inhibition at concentrations of 1.0 μM and 10.0 μM are given in the table along with IC50 details for selected examples.

One may read the inhibition as the relative decrease from the control value, in per cent. A word on the pIC50: it is −log10 of the IC50, conventionally taken in molar units.

Regarding `COc1cccc(/C=C/c2nc3cc(F)c(F)cc3n2-c2ccc(C(N)=O)nn2)c1OC1CCCC1` [Example 75, 6-{2-[(E)-2-(2-Cyclopentyloxy-3-methoxyphenyl)vinyl]-5,6-difluoro-1H-benzimidazol-1-yl}pyridazine-3-carboxamide], the inhibition at 1 µM turned out to be 34.4% and the inhibition at 10 µM came out at 90.7%.
With `COc1cccc(/C=C/c2nc3ccccc3n2-c2ccc(C#N)cn2)c1OCc1ccccc1F` [Example 14, 6-(2-{(E)-2-[2-(2-Fluorobenzyloxy)-3-methoxyphenyl]vinyl}-1H-benzimidazol-1-yl)nicotinonitrile], the inhibition at 1 µM came to 93.2%, the inhibition at 10 µM amounted to 97.7% and the pIC50 was 6.30 to 7.00.
On the same counts, the results for `COc1cccc(/C=C/c2nc3ccccc3n2-c2ccc(C#N)cc2)c1OCC1CC1` [Example 33, 4-{2-[(E)-2-(2-Cyclopropylmethoxy-3-methoxyphenyl)vinyl]-1H-benzimidazol-1-yl}benzonitrile] are 78.2%, 95.3% and 6.30 to 7.00.
With `COc1cccc(/C=C/c2nc3ccccc3n2-c2ccc(C#N)nn2)c1OC1CCCC1` [Example 20, 6-{2-[(E)-2-(2-[Cyclopentyloxy]-3-methoxyphenyl)vinyl]-1H-benzimidazol-1-yl}pyridazine-3-carbonitrile], the inhibition at 1 µM amounted to 0% and the inhibition at 10 µM was 52.7%.
With `CCC(CC)Oc1c(/C=C/c2nc3ccccc3n2-c2ncc(Br)cn2)cccc1OC` [Example 22, 1-(5-Bromopyrimidin-2-yl)-2-{(E)-2-[2-(1-ethylpropoxy)-3-methoxyphenyl]vinyl}-1H-benzimidazole], the inhibition at 1 µM was found to be 70.6%, the inhibition at 10 µM stood at 89.2% and the pIC50 is 6.30 to 7.00.
On the same counts, the results for `COc1cccc(/C=C/c2nc3c(F)cc(F)cc3n2-c2ccc(C#N)cn2)c1OC1CCCC1` [Example 80, 6-{4,6-Difluoro-2-[(E)-2-(2-[cyclopentyloxy]-3-methoxyphenyl)vinyl]-1H-benzimidazol-1-yl}nicotinonitrile] are 97.6%, 98.8% and 7.00 to 7.30.
For the molecule `COc1cccc(/C=C/c2nc3ccccc3n2-c2ccccn2)c1OC1CCCC1` [Example 2, 2-[(E)-2-(2-Cyclopentyloxy-3-methoxyphenyl)vinyl]-1-pyridin-2-yl-1H-benzimidazole], the inhibition at 1 µM worked out at 3.64% and the inhibition at 10 µM came out at 85%.
In the case of `COc1cccc(/C=C/c2nc3ccccc3n2-c2ccc(C#N)cn2)c1OCC1CC1` [Example 12, 6-{2-[(E)-2-(2-[Cyclopropylmethoxy]-3-methoxyphenyl)vinyl]-1H-benzimidazol-1-yl}nicotinonitrile], the inhibition at 1 µM was 81.4%, the inhibition at 10 µM stood at 97.7% and the pIC50 was 6.30 to 7.00.
Turning to `COc1cccc(/C=C/c2nc3cc(F)c(F)cc3n2-c2ccc(C#N)cn2)c1OC1CCCC1` [Example 68, 6-{2-[(E)-2-(2-Cyclopentyloxy-3-methoxyphenyl)vinyl]-5,6-difluoro-1H-benzimidazol-1-yl}nicotinonitrile], the inhibition at 1 µM turned out to be 95%, the inhibition at 10 µM turned out to be 99.1% and the pIC50 is 7.00 to 7.30.
Regarding `COc1cccc(/C=C/c2nc3ccc(Cl)cc3n2-c2ccc(C#N)cn2)c1OC1CCCC1` [Example 54, 6-{6-Chloro-2-[(E)-2-(2-cyclopentyloxy-3-methoxyphenyl)vinyl]-1H-benzimidazol-1-yl}nicotinonitrile], the inhibition at 1 µM was 95.3%, the inhibition at 10 µM is 97.7% and the pIC50 is 7.00 to 7.30.
Take `COc1ccc2c(c1)nc(/C=C/c1cccc(OC)c1OC1CCCC1)n2-c1ccc(C#N)cn1` [Example 56, 6-{2-[(E)-2-(2-[Cyclopentyloxy]-3-methoxyphenyl)vinyl]-5-methoxy-1H-benzimidazol-1-yl}nicotinonitrile]: the inhibition at 1 µM stood at 96.8%, the inhibition at 10 µM is 98.9% and the pIC50 was 6.30 to 7.00.
On the same counts, the results for `COc1cccc(/C=C/c2nc3ccccc3n2-c2ncc(Cl)cc2Cl)c1OCc1ccccc1F` [Example 6, 1-(3,5-Dichloropyridin-2-yl)-2-{(E)-2-[2-(2-fluorobenzyloxy)-3-methoxyphenyl]vinyl}-1H-benzimidazole] are 66.8%, 89% and less than 6.30.
On the same counts, the results for `COc1cccc(/C=C/c2nc3ccccc3n2-c2ccc(C(F)(F)F)cn2)c1OC(C)C` [Example 25, 2-[(E)-2-(2-Isopropoxy-3-methoxyphenyl)vinyl]-1-(5-trifluoromethylpyridin-2-yl)-1H-benzimidazole] are 86.7%, 97.5% and 6.30 to 7.00.
Consider `COc1cccc(/C=C/c2nc3ccc(F)cc3n2-c2ccc(C#N)cn2)c1OC1CCCC1` [Example 53, 6-{2-[(E)-2-(2-Cyclopentyloxy-3-methoxyphenyl)vinyl]-6-fluoro-1H-benzimidazol-1-yl}nicotinonitrile], for which the inhibition at 1 µM stood at 96%, the inhibition at 10 µM is 98.7% and the pIC50 was 6.30 to 7.00.
Consider `CCOC(=O)c1ccc(-n2c(/C=C/c3cccc(OC)c3OC3CCCC3)nc3ccccc32)nn1` [Example 19, Ethyl 6-{2-[(E)-2-(2-[Cyclopentyloxy]-3-methoxyphenyl)vinyl]-1H-benzimidazol-1-yl}pyridazine-3-carboxylate], for which the inhibition at 1 µM was found to be 82.9%, the inhibition at 10 µM was found to be 95.9% and the negative logarithm of the IC50 (pIC50) was 6.30 to 7.00.
Consider `N#Cc1ccc(-n2c(/C=C/c3cccc(OC(F)F)c3OC3CCCC3)nc3cc(F)c(F)cc32)nc1` [Example 84, 6-(2-{(E)-2-[2-(Cyclopentyloxy)-3-difluoromethoxyphenyl-]vinyl}-5,6-difluoro-1H-benzimidazol-1-yl)nicotinonitrile], for which the inhibition at 1 µM came out at 98.4%, the inhibition at 10 µM was determined as 99.3% and the negative logarithm of the IC50 (pIC50) was more than 7.30.
For `COc1cccc(/C=C/c2nc3ccccc3n2-c2ccc(C#N)cc2)c1OCc1ccccc1` [Example 34, 4-{2-[(E)-2-(2-Benzyloxy-3-methoxyphenyl)vinyl]-1H-benzimidazol-1-yl}benzonitrile], the inhibition at 1 µM came to 69.9%, the inhibition at 10 µM is 86.8% and the pIC50 is less than 6.30.
In the case of `COc1cccc(/C=C/c2nc3ccccc3n2-c2ccc(C(F)(F)F)cc2)c1OC1CCCC1` [Example 35, 2-[(E)-2-(2-Cyclopentyloxy-3-methoxyphenyl)vinyl]-1-[4-(trifluoromethyl)phenyl]-1H-benzimidazole], the inhibition at 1 µM worked out at 54.3% and the inhibition at 10 µM worked out at 77.8%.
In the case of `COc1cccc(/C=C/c2nc3cc(Cl)c(Cl)cc3n2-c2ccc(C#N)cn2)c1OC1CCCC1` [Example 72, 6-{5,6-Dichloro-2-[(E)-2-(2-cyclopentyloxy-3-methoxyphenyl)vinyl]-1H-benzimidazol-1-yl}nicotinonitrile], the inhibition at 1 µM was 90.8%, the inhibition at 10 µM turned out to be 95.5% and the pIC50 is 6.30 to 7.00.
